In PubChem BioAssay (NCI):
“And” between values parts separate entries of the source, which are not always exact repeats. Equal values may be shown once.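 The compound was tested at five concentrations on cells cultured in 96-well plates, with a 48-hour exposure period. Abbreviation: GI50, concentration required for 50% inhibition of growth. TGI denotes the concentration required for complete inhibition of growth.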 Where a SMILES comes first, the peptide text is derived from it. The star is where a group is joined. Boc = CC(C)(C)OC(=O)*

system: T-47D breast; experiment: growth of human tumour cells (NCI), 48 h

SMILES | GI50 | TGI
Cn1c(Nc2ccc(C(F)(F)F)cc2)nc2cc(Oc3ccnc(-c4ncc(C(F)(F)F)[nH]4)c3)ccc21 | 2.3 µM | 17.4 µM
COc1ccc(-c2nsc3c2NC(=O)CC3c2cccc(OC)c2)cc1 (configuration not stated) | 0.871 µM | > 100 µM
C[C@@]12CCC[C@@](C)(C(=O)O)C1CC[C@]13CC(=O)[C@](CO)(C1)[C@@H](O)CC32 (some centres not stated) | > 100 µM | > 100 µM
O=[N+]([O-])c1ccc(CI)cc1 | 2.21 µM | 5.17 µM
CN(C)C/C=C/C(=O)Nc1cc2c(Nc3ccc(F)c(Cl)c3)ncnc2cc1O[C@H]1CCOC1 | – | 15.9 µM and > 10 µM
COc1cc(/C=C/C(=O)c2cccc(-n3cc(-c4ccc(Cl)cc4)[nH]c3=O)c2)ccc1O | 3.39 µM | 17.8 µM
CCN(Cc1ccc(F)cc1)c1ccc(CO)c(Br)c1 | 0.0546 µM | 0.296 µM
Cc1ccc2c(C3C(C#N)=C(N)Oc4cc5ccccc5cc43)cc(=O)oc2c1 (configuration not stated) | 1.49 µM | 64 µM
COC(=O)c1cc2c(s1)-c1nccc3c1c(nc1ccccc13)C2=O | 62.8 µM | > 100 µM
COc1ccc(-c2cc(/C=C/C(=O)c3ccc(OC)c(OC)c3)[nH]n2)cc1 | 1.6 µM | 5.15 µM
Oc1ccc(Nc2c3ccccc3nc3occ(Cl)c23)cc1 | 6.49 µM | > 100 µM
O=C(Nc1cc(C(F)(F)F)ccc1Cl)c1cccc(NC2=C(Cl)C(=O)N(Cc3ccccc3)C2=O)c1 | 81.1 µM | > 100 µM
CC1(Br)Cc2ccccc2C1=O (configuration not stated) | 4.18 µM | 21.2 µM
COc1ccc2c(c1)c[n+](C)c1c3cc(OC)c(OC)cc3ccc21 | 1.95 µM and 5.02 µM | 4.93 µM and 26.4 µM
CCOC(=O)/C=C/c1ccc(C#Cc2ccccc2)cc1 | 86.8 µM | > 100 µM
C[C@H]1CN[C@@H]2[C@@H](C)[C@H]3[C@@H](C[C@H]4[C@@H]5CC[C@H]6C[C@@H](N)CC[C@]6(C)[C@H]5CC[C@]34C)O[C@@]2(O)C1 | – | 4.51 µM
O=C1c2cc3c(cc2-c2c1c1cc(Cl)c(Cl)cc1c(=O)n2C[C@H](O)CO)OCO3 | < 0.01 µM | 0.0334 µM
COc1ccc(/C(=C\C=C(C#N)C#N)Sc2nc3ccccc3s2)cc1 | 6.82 µM | 27 µM
CC(C)OC(=O)[C@H](C)NP(=O)(OC[C@H]1O[C@@H](n2ccc(=O)[nH]c2=O)[C@](C)(F)[C@@H]1O)Oc1ccccc1 (some centres not stated) | > 100 µM | > 100 µM
O=C(O)c1ccc(C(=O)O)c2c(C(=O)O)ccc(C(=O)O)c12 | – | > 100 µM
S=c1[nH]c2c(Cl)c(Cl)c(Cl)c(Cl)c2[nH]1 | – | > 100 µM
Cc1cc(N(CCCNc2ccnc3cc(Cl)ccc23)Cc2ccc3c(c2)OCO3)nc(N2CCOCC2)n1 | 0.323 µM | 0.998 µM
O=C(/C=C/C=C/c1ccccc1)c1ccccc1 | – | 48.2 µM
O=C(Nc1ccc(Cl)c(C(F)(F)F)c1)c1ccc(NC2=C(Cl)C(=O)N(Cc3ccccc3)C2=O)cc1 | 6.11 µM | > 100 µM
COC(=O)C(C)NC(=O)C(CCSC)NC(=O)C(Cc1ccccc1)NC(=O)OC(C)(C)C (stereo not drawn) (Boc-Phe-Met-Ala-OMe; configuration not given here) | – | > 100 µM
Cc1nc2cc(Nc3nc(Nc4ccc(F)cc4)nc(-c4cccs4)n3)ccc2n1Cc1ccccc1 | 2.6 µM | 9.33 µM
Oc1ccc2ccccc2c1N=Nc1ccc(Br)cc1 | – | > 100 µM

system: SK-MEL-28 melanoma; experiment: growth of human tumour cells (NCI), 48 h

SMILES | GI50 | TGI
Cn1c(Nc2ccc(C(F)(F)F)cc2)nc2cc(Oc3ccnc(-c4ncc(C(F)(F)F)[nH]4)c3)ccc21 | 0.126 µM | 4.79 µM
COc1ccc(-c2nsc3c2NC(=O)CC3c2cccc(OC)c2)cc1 (configuration not stated) | 10.7 µM | > 100 µM
C[C@@]12CCC[C@@](C)(C(=O)O)C1CC[C@]13CC(=O)[C@](CO)(C1)[C@@H](O)CC32 (some centres not stated) | > 100 µM | > 100 µM
O=[N+]([O-])c1ccc(CI)cc1 | 5.15 µM | 18.2 µM
CN(C)C/C=C/C(=O)Nc1cc2c(Nc3ccc(F)c(Cl)c3)ncnc2cc1O[C@H]1CCOC1 | 2.29 µM and 2.45 µM | 6.8 µM and > 10 µM
COc1cc(/C=C/C(=O)c2cccc(-n3cc(-c4ccc(Cl)cc4)[nH]c3=O)c2)ccc1O | 2.07 µM | 4.18 µM
CCN(Cc1ccc(F)cc1)c1ccc(CO)c(Br)c1 | 15 µM | 50.6 µM
Cc1ccc2c(C3C(C#N)=C(N)Oc4cc5ccccc5cc43)cc(=O)oc2c1 (configuration not stated) | 12.3 µM | > 100 µM
COC(=O)c1cc2c(s1)-c1nccc3c1c(nc1ccccc13)C2=O | > 100 µM | > 100 µM
COc1ccc(-c2cc(/C=C/C(=O)c3ccc(OC)c(OC)c3)[nH]n2)cc1 | 1.65 µM | 3.07 µM
Oc1ccc(Nc2c3ccccc3nc3occ(Cl)c23)cc1 | 6.18 µM | 63.8 µM
O=C(Nc1cc(C(F)(F)F)ccc1Cl)c1cccc(NC2=C(Cl)C(=O)N(Cc3ccccc3)C2=O)c1 | > 100 µM | > 100 µM
CC1(Br)Cc2ccccc2C1=O (configuration not stated) | – | 7.68 µM
COc1ccc2c(c1)c[n+](C)c1c3cc(OC)c(OC)cc3ccc21 | 1.7 µM and 13 µM | 3.45 µM and 27.3 µM
CCOC(=O)/C=C/c1ccc(C#Cc2ccccc2)cc1 | > 100 µM | > 100 µM
C[C@H]1CN[C@@H]2[C@@H](C)[C@H]3[C@@H](C[C@H]4[C@@H]5CC[C@H]6C[C@@H](N)CC[C@]6(C)[C@H]5CC[C@]34C)O[C@@]2(O)C1 | – | 4.23 µM
O=C1c2cc3c(cc2-c2c1c1cc(Cl)c(Cl)cc1c(=O)n2C[C@H](O)CO)OCO3 | 0.0429 µM | 8.62 µM
CC(C)OC(=O)[C@H](C)NP(=O)(OC[C@H]1O[C@@H](n2ccc(=O)[nH]c2=O)[C@](C)(F)[C@@H]1O)Oc1ccccc1 (some centres not stated) | > 100 µM | > 100 µM
O=C(O)c1ccc(C(=O)O)c2c(C(=O)O)ccc(C(=O)O)c12 | – | > 100 µM
Cc1cc(N(CCCNc2ccnc3cc(Cl)ccc23)Cc2ccc3c(c2)OCO3)nc(N2CCOCC2)n1 | 0.254 µM | 0.681 µM
O=C(/C=C/C=C/c1ccccc1)c1ccccc1 | – | 31.3 µM
O=C(Nc1ccc(Cl)c(C(F)(F)F)c1)c1ccc(NC2=C(Cl)C(=O)N(Cc3ccccc3)C2=O)cc1 | 4.4 µM | 17.6 µM
COC(=O)C(C)NC(=O)C(CCSC)NC(=O)C(Cc1ccccc1)NC(=O)OC(C)(C)C (stereo not drawn) (Boc-Phe-Met-Ala-OMe; configuration not given here) | 38.9 µg/mL | > 100 µM
Cc1nc2cc(Nc3nc(Nc4ccc(F)cc4)nc(-c4cccs4)n3)ccc2n1Cc1ccccc1 | 9.47 µM | > 100 µM
Oc1ccc2ccccc2c1N=Nc1ccc(Br)cc1 | – | > 100 µM
Cn1cc(-c2csc(-c3c[nH]c4ccc(Br)cc34)n2)c2cnccc21 | 1.7 µM | 3.31 µM

system: SF-539 CNS; experiment: growth of human tumour cells (NCI), 48 h

SMILES | GI50 | TGI
Cn1c(Nc2ccc(C(F)(F)F)cc2)nc2cc(Oc3ccnc(-c4ncc(C(F)(F)F)[nH]4)c3)ccc21 | 0.232 µM | 13.7 µM
COc1ccc(-c2nsc3c2NC(=O)CC3c2cccc(OC)c2)cc1 (configuration not stated) | 1.87 µM | 6.7 µM
C[C@@]12CCC[C@@](C)(C(=O)O)C1CC[C@]13CC(=O)[C@](CO)(C1)[C@@H](O)CC32 (some centres not stated) | > 100 µM | > 100 µM
O=[N+]([O-])c1ccc(CI)cc1 | 2.66 µM | 8.19 µM
CN(C)C/C=C/C(=O)Nc1cc2c(Nc3ccc(F)c(Cl)c3)ncnc2cc1O[C@H]1CCOC1 | 1.5 µM and 2.59 µM | 4.68 µM and 9.71 µM
COc1cc(/C=C/C(=O)c2cccc(-n3cc(-c4ccc(Cl)cc4)[nH]c3=O)c2)ccc1O | 1.86 µM | 4.05 µM
CCN(Cc1ccc(F)cc1)c1ccc(CO)c(Br)c1 | 15 µM | 29.4 µM
Cc1ccc2c(C3C(C#N)=C(N)Oc4cc5ccccc5cc43)cc(=O)oc2c1 (configuration not stated) | 0.873 µM | 7.6 µM
COc1ccc(-c2cc(/C=C/C(=O)c3ccc(OC)c(OC)c3)[nH]n2)cc1 | 1.27 µM | 2.61 µM
